# From patent US9155795B2, “CXCR4 receptor compounds” (Anchor Therapeutics, Inc., priority 2010, dated 2015)
# Like-named read-outs stand apart in the source and are kept apart here. Where a SMILES comes first, the peptide text is derived from it. [ ]: non-standard residue; d: D form. The star is where a group is joined. Palmitoyl = CCCCCCCCCCCCCCCC(=O)*; Hyp = O=C(O)[C@@H]1C[C@@H](O)CN1; X1 = CCCCCCCCCCCCOCCC(=O)*; hSer = N[C@@H](CCO)C(=O)O; Nle = CCCC[C@H](N)C(=O)O
# Tests used:
# [1] = Pharmacokinetic analysis in mice (plasma, LC/MS); assay type: in vivo; settings: for bioavailability / MRT inf / Tmax / half-life: male, mouse, in vivo, 2.5 umol/kg; for MRT inf / Tmax / half-life: sc
# Procedure: To determine the pharmacokinetic profile of the CXCR4 modulators, compounds were administered as single subcutaneous injection to 6-8 week old male mice at doses of either […] (three or four mice/group). […] Dosing of 0.5 μmol/kg or 1 μmol/kg were used for intravenous dosing. […] Mice were sacrificed and blood samples collected at 15 minutes, 30 minutes, 1 hour, 2 hours, 4 hours, 8 hours, and 24 hours after dosing. The concentration of compound in plasma samples was analyzed by LC/MS according to the method below.
# To this, 5 μL of the analyte compound in AcN:H2O:FA (70:30:1%) of 100 μM concentration was added to get 5 μM concentration.
# Serial calibration standards in plasma or plasma samples were transferred to clean labeled tubes and mixed with 3 volumes of acetonitrile with internal standard, tolbutamide, in order to precipitate proteins. The mixtures were vortexed and centrifuged at 12000 RPM (15320 g) for 10 minutes. Supernatants were transferred to HPLC injection vials or 96-well plates and 5 μL were injected into the LC-MS/MS system.
# Noncompartmental pharmacokinetic analyses were performed using WinNonlin Professional (version 5.2) software (Pharsight, Cary, N.C.). The data were analyzed using the extravascular input model. For each subject, pharmacokinetic parameters were calculated individually as follows and then averaged. The maximum drug concentration in plasma, Cmax, and Tmax, the time to achieve Cmax, were calculated directly from the concentration-time curves. The area under the plasma concentration-time curve from hour 0 to the last measurable concentration in plasma, AUClast, was estimated by the linear trapezoidal rule. The area under the plasma concentration-time curve from hour 0 to infinity estimated using the following formula: AUCinf—obs=AUClast+Ct/Lambda_z, where Ct is the last measurable concentration in plasma, and Lambda_z is the terminal elimination rate constant estimated using log-linear regression during the terminal elimination phase. The number of points used in Lambda_z calculation was determined by visual inspection of the data describing the terminal phase and evaluation of the correlation coefficient associated with the regression line. T1/2, the terminal elimination half-life=ln(2)/Lambda_z. Mean residence time MRT, was calculated as following: MRT=(AUMCinf/AUCinf). Subcutaneous absorption bioavailability was calculated as the AUCinf following subcutaneous dosing divided by the AUCinf following intravenous dosing. Results were expressed as percentages.
# male BALB/c mice = test: Mobilization of polymorphonuclear leukocytes (PMNs) in mice; assay type: in vivo; settings: for Lymphocytes (×10^3 μl) Mean ± SD / PMNs (×10^3 μl) Mean ± SD: blood 3 hours after injection
# Procedure: The effect of Compound 26 on mobilization of PMNs following subcutaneous administration was evaluated in mice. […] Louis, Mo.) was administered subcutaneously to 10 mice. […] Neutrophil and lymphocyte counts were determined using a Hemavet Model 950FS cell counter (Drew Scientific, Dallas, Tex.).
# CXCR4 = target: T1, CXCR4 (Homo sapiens, UniProt P61073); test: Calcium flux assay, agonist mode, Flexstation (CCRF-CEM cells); assay type: cell-based; settings: CCRF-CEM, percent of maximum response compared with SDF-1α, read-out: % Intrinsic Activity
# T1 construct: CCRF-CEM cells, a human T-cell ALL line that endogenously expresses CXCR4; endogenous in cells; host or cells: CCRF-CEM (human T-cell acute lymphoblastic leukemia line)
# T1 sequence (P61073 whole entry): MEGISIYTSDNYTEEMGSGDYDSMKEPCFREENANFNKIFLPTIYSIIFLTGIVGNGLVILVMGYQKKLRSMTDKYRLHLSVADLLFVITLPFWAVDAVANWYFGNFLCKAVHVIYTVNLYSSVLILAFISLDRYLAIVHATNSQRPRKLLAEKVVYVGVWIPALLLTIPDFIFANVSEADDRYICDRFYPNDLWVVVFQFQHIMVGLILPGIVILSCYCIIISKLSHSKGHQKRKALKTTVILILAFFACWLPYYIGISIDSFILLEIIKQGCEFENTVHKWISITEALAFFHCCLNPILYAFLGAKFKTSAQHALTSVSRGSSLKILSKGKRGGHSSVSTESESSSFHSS
# Description: Calcium Flux Assay is one of the most popular cell-based GPCR functional assays. It most often uses calcium sensing fluorescent dyes such as fura2 AM, fluo-4 and Calcium-4 to measure changes in intracellular calcium concentration. It is used mainly to detect GPCR signaling via Gαq subunit. Activation of these Gq-coupled GPCRs leads to activation of phospholipase C, which subsequently leads to increase in inositol phosphate production. IP3 receptors on endoplasmic reticulum sense the change then release calcium into cytoplasm. Intracellular calcium binding to the fluorescent dyes can be detected by instruments that quantify fluorescent intensities, such as FLIPR Tetra, Flexstation (MDS) and FDSS (Hamamatsu). In addition, to assess Gq-couple receptor signaling, a calcium flux assay can also be used to study Gs and Gi couple receptors by co-expressing CNG (cyclic nucleotide gated calcium channel) or chimeric G-proteins (Gqi5, Gsi5 for example). Activation of some Gi-coupled receptors can also be detected by calcium flux assay via Gβγ mediated phospholipase C activation.
# The calcium flux assay was used to assess the test compounds' ability to activate the CXCR4 receptor in CCRF-CEM cells (human T lymphoblasts from acute lymphoblastic leukemia). […] After dye loading by incubating with Calcium-4 dye at 37° C. for 1 hour, cell plates were read at 37° C. using the using the Flexstation 3 workstation. Receptor activation was assessed by measuring changes in fluorescent intensity after the addition of the test compounds or the reference agonist SDF-1α on the using the Flexstation 3 workstation. EC50
# and percent intrinsic actively were derived from the data collected. Intrinsic activity refers to the efficacy of the test compound and is calculated as the percent of maximum response compared with the response of the reference standard (i.e., natural agonist, SDF-1α).
structure (smiles),measurement,setting,value
CCCCCCCCCCCCCCCC(=O)N[C@@H](CCSC)C(=O)NCC(=O)N[C@@H](Cc1ccc(O)cc1)C(=O)N[C@@H](CCC(N)=O)C(=O)N[C@@H](CCCCN)C(=O)N[C@@H](CCCCN)C(=O)N[C@@H](CC(C)C)C(=O)N[C@@H](CCCNC(=N)N)C(=O)N[C@@H](CO)C(=O)N[C@@H](CCSC)C(=O)N[C@H](C(=O)N[C@@H](CC(=O)O)C(=O)N[C@@H](CCCCN)C(=O)N[C@@H](Cc1ccc(O)cc1)C(=O)N[C@@H](CCCNC(=N)N)C(=O)N[C@@H](CC(C)C)C(N)=O)[C@@H](C)O [Compound 48] (Palmitoyl-MGYQKKLRSMTDKYRL-NH2),bioavailability,[1],< 30%
same,MRT inf,[1],2.6 h
same,Tmax,[1],2 h
same,half-life,[1],1.5 h
CCCCCCCCCCCCCCCC(=O)NCC(=O)NCC(=O)N[C@@H](Cc1ccc(O)cc1)C(=O)N[C@@H](CCC(N)=O)C(=O)N[C@@H](CCCCN)C(=O)N[C@@H](CCCCN)C(=O)N[C@@H](CC(C)C)C(=O)N[C@@H](CCCNC(=N)N)C(=O)N1CCC[C@@H]1C(=O)N[C@@H](Cc1c[nH]cn1)C(=O)N[C@H](C(=O)N[C@@H](CC(=O)O)C(=O)N[C@@H](CCCCN)C(=O)N[C@@H](Cc1ccc(O)cc1)C(=O)N[C@@H](CCCNC(=N)N)C(=O)N[C@@H](CC(C)C)C(N)=O)[C@@H](C)O [Compound 26] (Palmitoyl-GGYQKKLR[dP]HTDKYRL-NH2; C-terminus assumed),bioavailability,"[1]; mice, subcutaneous 2.5 μmol/kg, AUCinf subcutaneous divided by AUCinf intravenous, read-out: Bioavailability (%)",88%
same,half-life,"[1]; mice, single subcutaneous injection, 2.5 μmol/kg, read-out: Half-life elimination (converted)",2.4 h
same,MRT inf,"[1]; mice, single subcutaneous injection, 2.5 μmol/kg, read-out: MRT INFobs",4.5 h
same,Tmax,"[1]; mice, single subcutaneous injection, 2.5 μmol/kg, read-out: Tmax",2 h
same,bioavailability following subcutaneous administration (comparison in words),"[1]; mice, subcutaneous",greater than that of compound 48
same,Lymphocytes (×10^3 μl) Mean ± SD,male BALB/c mice; 0.2 μmol/kg subcutaneous,4.39 ± 1.33 ×10^3 μl
same,PMNs (×10^3 μl) Mean ± SD,male BALB/c mice; 0.2 μmol/kg subcutaneous,3.60 ± 1.89 ×10^3 μl
same,Lymphocytes (×10^3 μl) Mean ± SD,male BALB/c mice; 0.66 μmol/kg subcutaneous,5.14 ± 2.22 ×10^3 μl
same,PMNs (×10^3 μl) Mean ± SD,male BALB/c mice; 0.66 μmol/kg subcutaneous,5.03 ± 1.97 ×10^3 μl
same,Lymphocytes (×10^3 μl) Mean ± SD,male BALB/c mice; 2 μmol/kg subcutaneous,4.15 ± 1.97 ×10^3 μl
same,PMNs (×10^3 μl) Mean ± SD,male BALB/c mice; 2 μmol/kg subcutaneous,5.92 ± 1.73 ×10^3 μl
same,Lymphocytes (×10^3 μl) Mean ± SD,male BALB/c mice; 6.66 μmol/kg subcutaneous,3.74 ± 2.12 ×10^3 μl
same,PMNs (×10^3 μl) Mean ± SD,male BALB/c mice; 6.66 μmol/kg subcutaneous,7.11 ± 2.82 ×10^3 μl
same,release of bone marrow PMNs (in words),"male BALB/c mice; systemic, subcutaneous injection",acted as a functional antagonist to elicit release of bone marrow PMNs in a dose responsive fashion
same,Emax,CXCR4,91.2%
"c1cc(CN2CCCNCCNCCCNCC2)ccc1CN1CCCNCCNCCCNCC1 [AMD3100, reference compound]",Lymphocytes (×10^3 μl) Mean ± SD,male BALB/c mice; 6.66 μmol/kg subcutaneous,8.76 ± 1.67 ×10^3 μl
same,PMNs (×10^3 μl) Mean ± SD,male BALB/c mice; 6.66 μmol/kg subcutaneous,7.83 ± 3.20 ×10^3 μl
CCCCCCCCCCCCCCCC(=O)NCC(=O)NCC(=O)N[C@@H](Cc1ccc(O)cc1)C(=O)N[C@@H](CCC(N)=O)C(=O)N[C@@H](CCCCN)C(=O)N[C@@H](CCCCN)C(=O)N[C@@H](CC(C)C)C(=O)N[C@@H](CCCNC(=N)N)C(=O)N1CCC[C@@H]1C(=O)N1C[C@H](O)C[C@H]1C(=O)N[C@H](C(=O)N[C@@H](CC(=O)O)C(=O)N[C@@H](CCCCN)C(=O)N[C@@H](Cc1ccc(O)cc1)C(=O)N[C@@H](CCCNC(=N)N)C(=O)N[C@@H](CC(C)C)C(N)=O)[C@@H](C)O [Compound 36] (Palmitoyl-GGYQKKLR[dP][Hyp]TDKYRL-NH2; C-terminus assumed),Emax,CXCR4,55.2%
CCCCCCCCCCCCCCCC(=O)N[C@@H](CCSC)C(=O)NCC(=O)N[C@@H](Cc1ccc(O)cc1)C(=O)N[C@@H](CCC(N)=O)C(=O)N[C@@H](CCCCN)C(=O)N[C@@H](CCCCN)C(=O)N[C@@H](CC(C)C)C(=O)N[C@@H](CCCNC(=N)N)C(=O)N[C@@H](CO)C(=O)N[C@@H](CCSC)C(=O)N[C@H](C(=O)N[C@@H](CC(=O)O)C(=O)N[C@@H](CCCCN)C(=O)N[C@@H](Cc1ccc(O)cc1)C(=O)N[C@@H](CCCNC(=N)N)C(=O)N[C@@H](CCCC)C(N)=O)[C@@H](C)O [Compound 12] (Palmitoyl-MGYQKKLRSMTDKYR[Nle]-NH2; C-terminus assumed),Emax,CXCR4,73.2%
CCCCCCCCCCCCOCCC(=O)NCC(=O)NCC(=O)N[C@@H](Cc1ccc(O)cc1)C(=O)N[C@@H](CCC(N)=O)C(=O)N[C@@H](CCCCN)C(=O)N[C@@H](CCCCN)C(=O)N[C@@H](CC(C)C)C(=O)N[C@@H](CCCNC(=N)N)C(=O)N[C@@H](CO)C(=O)N[C@@H](C)C(=O)N[C@H](C(=O)N[C@@H](CC(=O)O)C(=O)N[C@@H](CCCCN)C(=O)N[C@@H](Cc1ccc(O)cc1)C(=O)N[C@@H](CCCNC(=N)N)C(=O)N[C@@H](CC(C)C)C(N)=O)[C@@H](C)O [Compound 31] (X1-GGYQKKLRSATDKYRL-NH2; C-terminus assumed),Emax,CXCR4,84.2%
CCCCCCCCCCCCCCCC(=O)N[C@@H](CCSC)C(=O)NCC(=O)N[C@@H](Cc1ccc(O)cc1)C(=O)N[C@@H](CCC(N)=O)C(=O)N[C@@H](CCCCN)C(=O)N[C@@H](CCCCN)C(=O)N[C@@H](CC(C)C)C(=O)N[C@@H](CCCNC(=N)N)C(=O)N[C@@H](CO)C(=O)N1CCC[C@@H]1C(=O)N[C@@H](CCSC)C(=O)N[C@H](C(=O)N[C@@H](CC(=O)O)C(=O)N[C@@H](CCCCN)C(=O)N[C@@H](Cc1ccc(O)cc1)C(=O)N[C@@H](CCCNC(=N)N)C(=O)N[C@@H](CC(C)C)C(N)=O)[C@@H](C)O [Compound 9] (Palmitoyl-MGYQKKLRS[dP]MTDKYRL-NH2; C-terminus assumed),Emax,CXCR4,77.9%
CCCCCCCCCCCCCCCC(=O)N[C@@H](CCOC)C(=O)NCC(=O)N[C@@H](Cc1ccc(O)cc1)C(=O)N[C@@H](CCC(N)=O)C(=O)N[C@@H](CCCCN)C(=O)N[C@@H](CCCCN)C(=O)N[C@@H](CC(C)C)C(=O)N[C@@H](CCCNC(=N)N)C(=O)N[C@@H](CO)C(=O)N[C@@H](CCOC)C(=O)N[C@H](C(=O)N[C@@H](CC(=O)O)C(=O)N[C@@H](CCCCN)C(=O)N[C@@H](Cc1ccc(O)cc1)C(=O)N[C@@H](CCCNC(=N)N)C(=O)N[C@@H](CC(C)C)C(N)=O)[C@@H](C)O [Compound 22] (Palmitoyl-[hSer](Me)GYQKKLRS[hSer](Me)TDKYRL-NH2),Emax,CXCR4,77.7%
